# Data from article PMC3617838 (Journal of Experimental Botany, 2013).
# What was measured:
# LTP3 (LTP3-GST) = target: T1, LTP3 (LTP3-GST) (Arabidopsis thaliana, UniProt Q9LLR7); experiment: fluorescence titration; type: binding
# T1 sequence (Q9LLR7 24-115): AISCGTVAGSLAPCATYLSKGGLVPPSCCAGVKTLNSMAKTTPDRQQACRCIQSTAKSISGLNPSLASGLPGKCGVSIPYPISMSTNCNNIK
# [1] = target: T2, MYB96-His (Arabidopsis thaliana) (UniProt Q24JK1); experiment: EMSA; conditions: EMSA as in Shi et al. 2012; buffer, salt, pH and temperature not stated
# T2 sequence: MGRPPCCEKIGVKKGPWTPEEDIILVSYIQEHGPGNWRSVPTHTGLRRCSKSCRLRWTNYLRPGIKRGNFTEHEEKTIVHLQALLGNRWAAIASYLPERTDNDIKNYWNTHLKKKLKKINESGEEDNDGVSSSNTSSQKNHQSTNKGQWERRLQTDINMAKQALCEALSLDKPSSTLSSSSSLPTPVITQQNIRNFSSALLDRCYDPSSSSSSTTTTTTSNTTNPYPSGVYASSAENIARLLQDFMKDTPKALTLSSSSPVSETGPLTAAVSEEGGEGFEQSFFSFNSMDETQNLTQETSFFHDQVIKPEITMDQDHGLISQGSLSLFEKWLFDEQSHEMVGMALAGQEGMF
Kd (LTP3 (LTP3-GST)) [µM],Molecule,binding [1]
9.8 ± 4.7,"Cc1ccc(Nc2ccc3cc(S(=O)(=O)O)ccc3c2)cc1 [TNS, 2-p-toluidinonaphthalene-6-sulphonate]",–
–,CCACAGTTAATTAAAAGCAGATGAAAGGTGGTCCAATGGAAAAGGAGAATGTGATTGGGCTAGTTGGGAGAGTTCTGATGTCTAGTGTTGGGTACACGTGTCCGTCAGTTACACA (double strand) [LTP3 promoter XY],binds
